# Laboratory results from publication PMC11790958, “Molecular mechanism of condensin I activation by KIF4A” (The EMBO Journal, 2024).
# Residues, ends and D or L forms follow the SMILES beside them. No end group written: not given here. *: point of attachment. 5FAM = O=C1OC2(c3ccc(O)cc3Oc3cc(O)ccc32)c2ccc(C(=O)*)cc21; 5‑FAM = 5-carboxyfluorescein label
# Assays:
# condensin I [1] = assay: ATPase activity assay (EnzCheck phosphate assay), basal; format: biochemical, human; conditions: for effect of peptide on ATPase activity of CI: 50 nM CI
# Procedure: ATPase assays were performed based on the method described previously (Voulgaris and Gligoris, [2019]) using the EnzCheck phosphate assay kit (Invitrogen). Condensin I complexes were used at a final concentration of 50 nM, while HAWK subunits were used at 100 nM and peptides were used at 50 μM. Basal ATPase assays were performed with final salt concentration of 100 mM KCl. DNA titrations were performed with 50 bp dsDNA annealed by heating to 98 degrees and slowly cooling in annealing buffer (10 mM Tris pH 7.5, 50 mM NaCl, 1 mM EDTA).
# Plate was read with a POLARstar Omega plate reader (BMG).
# NCAPG [2] = biological target: T1, NCAPG (Homo sapiens, UniProt Q9BPX3); assay: Fluorescence polarisation competition assay, 5-FAM NCAPD2 peptide and NCAPG; format: binding; conditions: 100 nM 5-FAM-NCAPD2_1376-1398, 10 μM competing peptide, mean ± SD
# T1 construct: ystrep (Strep tag); made in house; host or cells: Sf9 insect cells (baculovirus)
# Procedure: […] Similar assays were performed for NCAPH2 peptide, using a fixed concentration of 100 nM of F-N-NCAPH55-77 and 4 μM CI NdelH, D2delC, in the presence or absence of 100 μM of KIF4A WT1206-1228 or KIF4A Mut1206-1228 peptide.
# (§1) Background was determined by measuring 100 nM of F-NCAPD2-C1376-1398 or F-N-NCAPH55-77 in the presence of peptide buffer (20 mM HEPES pH 8), KIF4A WT1206-1228 or KIF4A Mut1206-1228 peptide, and subtracted from each measurement. Assay was performed with three technical repeats, setting up a new plate with distinct protein aliquot each time, reading the plate three times to ensure equilibrium. Data analysed and plotted using GraphPad Prism.
# condensin I [3] = assay: Single-molecule loop extrusion assay, loop extrusion rate; format: biochemical, human; conditions: without flow, 0.75 nM-3 nM protein, peptide at 1000x
# Procedure: Real-time imaging of the loop extrusion by condensin I was carried out in the aforementioned flow cells as follows. The channel was washed with T50 buffer (40 mM Tris-HCl pH 8.0, 50 mM NaCl, 0.2 mM EDTA), incubated with 1 µM Streptavidin in T50 buffer for 2 min and incubated with 5 mg/ml BSA in T50 buffer for 5 min to further reduce unspecific binding of proteins to the surface. The excess Streptavidin and BSA were washed thoroughly with T50 buffer. Lambda DNA biotinylated at both ends was introduced to the channel at a flow rate of 2 µl/min facilitating surface attachment through the streptavidin–biotin binding. […]
# ROIs with a DNA strand that formed a loop were cropped and saved in TIFF format for further analysis. […] The kymographs were built by summing the fluorescence intensity for 11 pixels along the line centred around the DNA axis from the median filtered images. […]
# For the determination of the loop extrusion rate, each line in the kymograph was split into three regions: “Up”, “Loop” and “Down” (Fig. 4D). For this, first the loop region was determined as follows: Using the “find_peaks” function from the package signal from the Python module scipy local intensity maxima in each line of the kymograph was determined. […] The loop extrusion rate in Fig. 4G was determined by fitting a linear function f(x) = kx + c to the initial 5 s of the loop growth curve. […]
# CI NdelH, D2delC = assay: Fluorescence polarisation competition assay, 5-FAM NCAPH peptide and CI NdelH, D2delC; format: binding, human; conditions: 100 nM 5-FAM-NCAPH55-77 with 4 μM CID2ΔC,NΔH
# Procedure: FP competition assays were performed for NCAPD2 peptide, using a fixed concentration of 100 nM of F-NCAPD2-C1376-1398 and 6 μM of NCAPG, in the presence or absence of 10 μM KIF4A WT1206-1228 or KIF4A Mut1206-1228 peptide. Similar assays were performed for NCAPH2 peptide, using a fixed concentration of 100 nM of F-N-NCAPH55-77 and 4 μM CI NdelH, D2delC, in the presence or absence of 100 μM of KIF4A WT1206-1228 or KIF4A Mut1206-1228 peptide.
# as §1
# condensin I [4] = assay: Single-molecule loop extrusion assay, fraction of looped DNA; format: biochemical, human; conditions: for fraction of looped DNA: 0.5 nM condensin I WT, peptide at 1000x
# Procedure: Real-time imaging of the loop extrusion by condensin I was carried out in the aforementioned flow cells as follows. The channel was washed with T50 buffer (40 mM Tris-HCl pH 8.0, 50 mM NaCl, 0.2 mM EDTA), incubated with 1 µM Streptavidin in T50 buffer for 2 min and incubated with 5 mg/ml BSA in T50 buffer for 5 min to further reduce unspecific binding of proteins to the surface. The excess Streptavidin and BSA were washed thoroughly with T50 buffer. Lambda DNA biotinylated at both ends was introduced to the channel at a flow rate of 2 µl/min facilitating surface attachment through the streptavidin–biotin binding. The flow was adjusted and kept constant with a syringe pump attached to the outlet of the flow cell. Excess DNA was washed thoroughly with T50 buffer.
# The surface attached DNA molecules were imaged in the imaging buffer (40 mM Tris-HCl pH 7.5, 2 mM Trolox, 30 mM D-glucose, 50 mM Potassium Glutamate (L-Glutamic acid monopotassium salt monohydrate), 2.5 mM MgCl2, 1 mg/ml BSA, 1 mM TCEP, 2.5 mM ATP, 100 nM Sytox Orange, 30 mg/ml Glucose Oxidase (15 U/ml), 20 mg/ml Catalase (1000 U/ml)). The imaging buffer supplied with used condensin I variant was introduced into the channel at a flow rate of 10 µl/min for 100 s and the flow was stopped afterward. For the activity assay comparing condensin I WT and condensin I ΔNCAPG 1 nM of protein, for the activity assay comparing condensin I WT and condensin I WT supplied with KIF4A peptide 0.5 nM of protein and 1000× of the KIF4A peptide, for the analysis of loop extrusion rate 0.75 nM–3 nM of protein (in the case of condensin I WT supplied with KIF4A peptide, correspondingly 1000× of KIF4A peptide) was used.
# Region of interests (ROIs) containing a single Lambda DNA molecule were chosen manually and annotated using the tools provided by the Python package Napari. For a single loop extrusion experiment, a field of contains ~100–200 DNA strands. Only the strands that were tethered at both ends from the beginning to the end of the data acquisition were considered for the analysis. Each of the DNA strands were manually analysed whether they form at least one loop during an acquisition time of 1000 s, including the initial 100 s of flow. The “fraction of looped DNA” (Fig. 4B,C) was defined as the ratio of the number of the DNA strands which form at least one loop to the total number of DNA strands. This quantity was taken as a measure for the activity of the protein. […] (For 1 nM condensin I WT 4, for 1 nM condensin I ΔNCAPG 10, for 0.5 nM condensin I WT 3, For 0.5 nM condensin I WT supplied with 0.5 µM KIF4A three independent experiments were performed and analysed.) The error bars in the Fig. 4 are given by the standard deviation of these datasets. […]
# [5] = biological target: T2, CID2ΔC (condensin I lacking NCAPD2 C-terminal region) (Homo sapiens, UniProt Q9BPX3); assay: Fluorescence polarisation binding assay of 5-FAM peptides with CID2ΔC; conditions: FP, 100 nM 5-FAM peptide titrated with CID2ΔC, three technical replicates, ± standard error
# T2 construct: made in house; host or cells: Sf9 insect cells (baculovirus)
# Procedure: (§2) Fluorescence polarisation binding assays were performed by mixing 100 nM of 5-FAM labelled peptide (Reagents and Tools Table) with indicated concentration of protein in FP buffer (20 mM HEPES pH 8, 150 mM KCl, 2.5 mM MgCl, 5% glycerol, 1 mM DTT) and incubated at room temperature for 15 min before reading the plate with a POLARstar Omega plate reader (BMG). The plate was read three times at 5 min intervals to ensure samples reached equilibrium and three technical replicates were performed, setting up a new plate, with distinct protein aliquot in each case. Data was analysed and plotted in Graphpad Prism and Kd fit using the following: FP=FPmax/2[Pep]([C]+[Pep]+Kd)−([C]+[Pep]+Kd)^2−4.[C].[Pep] Where [C] and [Pep] are the concentration, in μM, of condensin and 5-FAM labelled peptide respectively, FPmax the maximum change in fluorescence polarisation in mP and Kd is the equilibrium dissociation constant. Fit curves are plotted, with standard deviation.
# NCAPG [6] = biological target: T1, NCAPG; assay: Fluorescence polarisation binding assay of 5-FAM peptides with NCAPG; conditions: FP, 100 nM 5-FAM peptide; Kd not fit
# Procedure: as §2
molecule,measurement,setting,value
PGKKAAAAGAAATSFFSGCSPIE [KIF4A mut],effect of peptide on ATPase activity of CI,"condensin I [1]; 50 μM peptide, 3 repeats",no increase in activity
same,FP signal on addition of competing peptide,NCAPG [2],not significantly changed
KIF4Amut peptide (PGKKAAAAGAAATSFFSGCSPIE),Fit rates,"condensin I [1]; CI D2delC + peptide, replicate 1","10.29 ATPase per molecule, per minute"
same,Fit rates,"condensin I [1]; CI D2delC + peptide, replicate 2","11.11 ATPase per molecule, per minute"
same,Fit rates,"condensin I [1]; CI D2delC + peptide, replicate 3","10.2 ATPase per molecule, per minute"
same,Fit rates,"condensin I [1]; CI D2delC + peptide, replicate 4","15.62 ATPase per molecule, per minute"
same,Fit rates,"condensin I [1]; CI D2delC + peptide, replicate 5","27.72 ATPase per molecule, per minute"
same,Fit rates,"condensin I [1]; CI NdelH + peptide, replicate 1","29.41 ATPase per molecule, per minute"
same,Fit rates,"condensin I [1]; CI NdelH + peptide, replicate 2","35.68 ATPase per molecule, per minute"
same,Fit rates,"condensin I [1]; CI NdelH + peptide, replicate 3","31.03 ATPase per molecule, per minute"
same,Fit rates,"condensin I [1]; CI NdelH D2delC + peptide, replicate 1","28.18 ATPase per molecule, per minute"
same,Fit rates,"condensin I [1]; CI NdelH D2delC + peptide, replicate 2","29.84 ATPase per molecule, per minute"
same,Fit rates,"condensin I [1]; CI NdelH D2delC + peptide, replicate 3","39.65 ATPase per molecule, per minute"
same,Fit rates,"condensin I [1]; CIWT + peptide, replicate 1","10.26 ATPase per molecule, per minute"
same,Fit rates,"condensin I [1]; CIWT + peptide, replicate 2","7.215 ATPase per molecule, per minute"
same,Fit rates,"condensin I [1]; CIWT + peptide, replicate 3","8.551 ATPase per molecule, per minute"
same,Fit rates,"condensin I [1]; CIWT + peptide, replicate 4","10.06 ATPase per molecule, per minute"
same,Fit rates,"condensin I [1]; CIWT + peptide, replicate 5","14.77 ATPase per molecule, per minute"
same,Fit rates,"condensin I [1]; CIWT + peptide, replicate 6","10.26 ATPase per molecule, per minute"
"PGKKKKRALASNTSFFSGCSPIE [KIF4A1206-1228, KIF4A SLiM peptide, residues 1206-1228, unlabelled]",effect of peptide on ATPase activity of CI,"condensin I [1]; 50 μM peptide, 3 repeats",small but significant increase
same,effect of peptide on ATPase rate of CINΔH,"condensin I [1]; 50 nM CINΔH, 50 μM peptide, 3 repeats",no additional stimulation
same,"effect of peptide on ATPase rate of CINΔH,D3ΔC","condensin I [1]; 50 nM CINΔH,D3ΔC, 50 μM peptide, 3 repeats",no additional stimulation
same,loop extrusion rate compared to CIWT,condensin I [3],no significant difference
same,FP signal on addition of competing peptide,"CI NdelH, D2delC; 100 μM competing peptide, listed as KIF4a peptide",~ 20 mP
same,fraction of looped DNA,condensin I [4]; experiment 1,0.9481
same,fraction of looped DNA,condensin I [4]; experiment 2,1
same,fraction of looped DNA,condensin I [4]; experiment 3,0.9388
same,tethers having DNA loops,"condensin I [4]; 0.5 nM condensin I, with or without 0.5 μM KIF4A1206-1228 peptide, 1000 s acquisition, mean of n = 3 experiments",~ 96%
CC[C@H](C)[C@H](NC(=O)[C@@H]1CCCN1C(=O)[C@H](CO)NC(=O)[C@H](CS)NC(=O)CNC(=O)[C@H](CO)NC(=O)[C@H](Cc1ccccc1)NC(=O)[C@H](Cc1ccccc1)NC(=O)[C@H](CO)NC(=O)[C@@H](NC(=O)[C@H](CC(N)=O)NC(=O)[C@H](CO)NC(=O)[C@H](C)NC(=O)[C@H](CC(C)C)NC(=O)[C@H](C)NC(=O)[C@H](CCCNC(=N)N)NC(=O)[C@H](CCCCN)NC(=O)[C@H](CCCCN)NC(=O)[C@H](CCCCN)NC(=O)[C@H](CCCCN)NC(=O)CNC(=O)[C@@H]1CCCN1C(=O)c1ccc2c(c1)C(=O)OC21c2ccc(O)cc2Oc2cc(O)ccc21)[C@@H](C)O)C(=O)N[C@@H](CCC(=O)O)C(=O)O [5-FAM-KIF4A1206–1228] (5FAM-PGKKKKRALASNTSFFSGCSPIE-OH),Kd,[5],2800 ± 200 nM
"5-FAM-FPQNDDEKERLQRRRSRVFDLQF ({5‑FAM}-FPQNDDEKERLQRRRSRVFDLQF) [5-FAM-NCAPH55–77, 5-FAM labelled peptide of NCAPH residues 55-77]",binding to NCAPG,NCAPG [6],low affinity
same,FP signal without competitor,"CI NdelH, D2delC",37 ± 7 mP
same,FP signal without competitor,"CI NdelH, D2delC; listed as NCAPH peptide",~ 35 mP
